These compounds were tested on MCH receptors (assay: MCH receptor activity class (method not given)). Settings: class by percent of control at 10^−7 M or IC50.

**Q.** With `Cc1cnc(N[C@H]2CC[C@@H](NC(=O)c3cccc(OC(C)C)c3)CC2)nc1N(C)C` [compound 2928, N-(cis-4-{[4-(dimethylamino)-5-methylpyrimidin-2-yl]amino}cyclohexyl)-3-isopropoxybenzamide] as the compound, how does the class read?
**A.** 2 (Class 2: The value of percent of control at 10^−7 M was from 40% to 60% or the value of IC′50 was from 50 nM to 200 nM.)

**Q.** With `CCOc1cc(OCC)cc(C(=O)N[C@H]2CC[C@@H](Nc3ncc(C)c(N(C)C)n3)CC2)c1` [compound 2929, N-(cis-4-{[4-(dimethylamino)-5-methylpyrimidin-2-yl]amino}cyclohexyl)-3,5-diethoxybenzamide] as the compound, how does the class read?
**A.** 1 (Class 1: The value of percent of control at 10^−7 M was less than 40% or the value of IC50 was less than 50 nM.)

**Q.** With `Cc1cnc(N[C@H]2CC[C@@H](NC(=O)c3cc(F)cc(C(F)(F)F)c3)CC2)nc1N(C)C` [compound 2930, N-(cis-4-{[4-(dimethylamino)-5-methylpyrimidin-2-yl]amino}cyclohexyl)-3-fluoro-5-(trifluoromethyl)benzamide] as the compound, how does the class read?
**A.** 1 (Class 1: The value of percent of control at 10^−7 M was less than 40% or the value of IC50 was less than 50 nM.)

**Q.** `Cc1cnc(N[C@H]2CC[C@@H](NC(=O)c3ccc(C(F)(F)F)c(F)c3)CC2)nc1N(C)C` [compound 2931] was tested. Which class did it give?
**A.** 3 (Class 3 The value of percent of control at 10^−7 M was more than 60% or the value of IC50 was more than 200 nM.)

**Q.** `Cc1cnc(N[C@H]2CC[C@@H](NC(=O)c3ccc(F)c(Cl)c3)CC2)nc1N(C)C` [compound 2932] was tested. Which class did it give?
**A.** 3 (Class 3 The value of percent of control at 10^−7 M was more than 60% or the value of IC50 was more than 200 nM.)

**Q.** `Cc1cnc(N[C@H]2CC[C@@H](NC(=O)c3cc(Br)cc(Br)c3)CC2)nc1N(C)C` [compound 2933] was tested. Which class did it give?
**A.** 1 (Class 1: The value of percent of control at 10^−7 M was less than 40% or the value of IC50 was less than 50 nM.)

**Q.** `Cc1cc(C)cc(C(=O)N[C@H]2CC[C@@H](Nc3ncc(C)c(N(C)C)n3)CC2)c1` [compound 2934] was tested. Which class did it give?
**A.** 1 (Class 1: The value of percent of control at 10^−7 M was less than 40% or the value of IC50 was less than 50 nM.)

**Q.** How did the class turn out when `Cc1cc(C(=O)N[C@H]2CC[C@@H](Nc3ncc(C)c(N(C)C)n3)CC2)ccc1Cl` [compound 2935] was run?
**A.** 1 (Class 1: The value of percent of control at 10^−7 M was less than 40% or the value of IC50 was less than 50 nM.)

**Q.** `COc1ccc(C(=O)N[C@H]2CC[C@@H](Nc3ncc(C)c(N(C)C)n3)CC2)cc1C(F)(F)F` [compound 2936, N-(cis-4-{[4-(dimethylamino)-5-methylpyrimidin-2-yl]amino}cyclohexyl)-4-methoxy-3-(trifluoromethyl)benzamide] was tested. Which class did it give?
**A.** 1 (Class 1: The value of percent of control at 10^−7 M was less than 40% or the value of IC50 was less than 50 nM.)

**Q.** For `Cc1cccc(C(=O)N[C@H]2CC[C@@H](Nc3ncc(C)c(N(C)C)n3)CC2)c1` [compound 2937, N-(cis-4-{[4-(dimethylamino)-5-methylpyrimidin-2-yl]amino}cyclohexyl)-3-methylbenzamide], which class is on record?
**A.** 1 (Class 1: The value of percent of control at 10^−7 M was less than 40% or the value of IC50 was less than 50 nM.)

**Q.** How did the class turn out when `COc1cccc(C(=O)N[C@H]2CC[C@@H](Nc3ncc(C)c(N(C)C)n3)CC2)c1` [compound 2938, N-(cis-4-{[4-(dimethylamino)-5-methylpyrimidin-2-yl]amino}cyclohexyl)-3-methoxybenzamide] was run?
**A.** 1 (Class 1: The value of percent of control at 10^−7 M was less than 40% or the value of IC50 was less than 50 nM.)

**Q.** For `Cc1ccc(C(=O)N[C@H]2CC[C@@H](Nc3ncc(C)c(N(C)C)n3)CC2)cc1` [compound 2939, N-(cis-4-{[4-(dimethylamino)-5-methylpyrimidin-2-yl]amino}cyclohexyl)-4-methylbenzamide], which class is on record?
**A.** 1 (Class 1: The value of percent of control at 10^−7 M was less than 40% or the value of IC50 was less than 50 nM.)

**Q.** `Cc1cnc(N[C@H]2CC[C@@H](NC(=O)c3cccc(Cl)c3)CC2)nc1N(C)C` [compound 2940, 3-chloro-N-(cis-4-{[4-(dimethylamino)-5-methylpyrimidin-2-yl]amino}cyclohexyl)benzamide] was tested. Which class did it give?
**A.** 1 (Class 1: The value of percent of control at 10^−7 M was less than 40% or the value of IC50 was less than 50 nM.)

**Q.** `Cc1cnc(N[C@H]2CC[C@@H](NC(=O)CN(C)c3cccc(Cl)c3)CC2)nc1N(C)C` [compound 2941] was tested. Which class did it give?
**A.** 1 (Class 1: The value of percent of control at 10^−7 M was less than 40% or the value of IC50 was less than 50 nM.)

**Q.** With `Cc1cccc(N(C)CC(=O)N[C@H]2CC[C@@H](Nc3ncc(C)c(N(C)C)n3)CC2)c1` [compound 2942] as the compound, how does the class read?
**A.** 1 (Class 1: The value of percent of control at 10^−7 M was less than 40% or the value of IC50 was less than 50 nM.)

**Q.** Which class does the source give for `Cc1cnc(N[C@H]2CC[C@@H](NC(=O)CN(C)c3cccc(F)c3)CC2)nc1N(C)C` [compound 2943] here?
**A.** 1 (Class 1: The value of percent of control at 10^−7 M was less than 40% or the value of IC50 was less than 50 nM.)

**Q.** How did the class turn out when `Cc1cnc(N[C@H]2CC[C@@H](NC(=O)CN(C)c3ccc(F)cc3)CC2)nc1N(C)C` [compound 2944] was run?
**A.** 1 (Class 1: The value of percent of control at 10^−7 M was less than 40% or the value of IC50 was less than 50 nM.)

**Q.** With `Cc1cnc(N[C@H]2CC[C@@H](NC(=O)CN(C)c3ccc(Cl)cc3)CC2)nc1N(C)C` [compound 2945] as the compound, how does the class read?
**A.** 1 (Class 1: The value of percent of control at 10^−7 M was less than 40% or the value of IC50 was less than 50 nM.)

**Q.** Which class does the source give for `Cc1cnc(N[C@H]2CC[C@@H](NC(=O)CN(C)c3ccc(F)c(F)c3)CC2)nc1N(C)C` [compound 2946] here?
**A.** 1 (Class 1: The value of percent of control at 10^−7 M was less than 40% or the value of IC50 was less than 50 nM.)

**Q.** With `COc1cccc(N(C)CC(=O)N[C@H]2CC[C@@H](Nc3ncc(C)c(N(C)C)n3)CC2)c1` [compound 2947] as the compound, how does the class read?
**A.** 1 (Class 1: The value of percent of control at 10^−7 M was less than 40% or the value of IC50 was less than 50 nM.)

**Q.** With `COc1ccc(N(C)CC(=O)N[C@H]2CC[C@@H](Nc3ncc(C)c(N(C)C)n3)CC2)cc1` [compound 2948] as the compound, how does the class read?
**A.** 2 (Class 2: The value of percent of control at 10^−7 M was from 40% to 60% or the value of IC′50 was from 50 nM to 200 nM.)

**Q.** Which class does the source give for `Cc1cc(N(C)C)nc(N[C@H]2CC[C@@H](NC(=O)C(C)(C)c3ccc(Cl)cc3)CC2)n1` [compound 2949, 2-(4-chlorophenyl)-N-(cis-4-{[4-(dimethylamino)-6-methylpyrimidin-2-yl]amino}cyclohexyl)-2-methylpropanamide] here?
**A.** 1 (Class 1: The value of percent of control at 10^−7 M was less than 40% or the value of IC50 was less than 50 nM.)

**Q.** How did the class turn out when `Cc1cc(N(C)C)nc(N[C@H]2CC[C@@H](NC(=O)Cc3cc(C(F)(F)F)cc(C(F)(F)F)c3)CC2)n1` [compound 2950, 2-[3,5-bis(trifluoromethyl)phenyl]-N-(cis-4-{[4-(dimethylamino)-6-methylpyrimidin-2-yl]amino}cyclohexyl)acetamide] was run?
**A.** 2 (Class 2: The value of percent of control at 10^−7 M was from 40% to 60% or the value of IC′50 was from 50 nM to 200 nM.)

**Q.** Which class does the source give for `Cc1cc(N(C)C)nc(N[C@H]2CC[C@@H](NC(=O)c3ccccc3)CC2)n1` [compound 2951, N-(cis-4-{[4-(dimethylamino)-6-methylpyrimidin-2-yl]amino}cyclohexyl)benzamide] here?
**A.** 3 (Class 3 The value of percent of control at 10^−7 M was more than 60% or the value of IC50 was more than 200 nM.)

**Q.** How did the class turn out when `CCCCc1ccc(C(=O)N[C@H]2CC[C@@H](Nc3nc(C)cc(N(C)C)n3)CC2)cc1` [compound 2952] was run?
**A.** 3 (Class 3 The value of percent of control at 10^−7 M was more than 60% or the value of IC50 was more than 200 nM.)

**Q.** For `Cc1cc(N(C)C)nc(N[C@H]2CC[C@@H](NC(=O)c3cccc(F)c3)CC2)n1` [compound 2953, N-(cis-4-{[4-(dimethylamino)-6-methylpyrimidin-2-yl]amino}cyclohexyl)-3-fluorobenzamide], which class is on record?
**A.** 2 (Class 2: The value of percent of control at 10^−7 M was from 40% to 60% or the value of IC′50 was from 50 nM to 200 nM.)

**Q.** Which class does the source give for `Cc1cc(N(C)C)nc(N[C@H]2CC[C@@H](NC(=O)c3cccc(C(F)(F)F)c3)CC2)n1` [compound 2954, N-(cis-4-{[4-(dimethylamino)-6-methylpyrimidin-2-yl]amino}cyclohexyl)-3-(trifluoromethyl)benzamide] here?
**A.** 1 (Class 1: The value of percent of control at 10^−7 M was less than 40% or the value of IC50 was less than 50 nM.)

**Q.** For `COc1ccccc1C(=O)N[C@H]1CC[C@@H](Nc2nc(C)cc(N(C)C)n2)CC1` [compound 2955], which class is on record?
**A.** 3 (Class 3 The value of percent of control at 10^−7 M was more than 60% or the value of IC50 was more than 200 nM.)

**Q.** `COc1ccc(C(=O)N[C@H]2CC[C@@H](Nc3nc(C)cc(N(C)C)n3)CC2)cc1` [compound 2956] was tested. Which class did it give?
**A.** 3 (Class 3 The value of percent of control at 10^−7 M was more than 60% or the value of IC50 was more than 200 nM.)

**Q.** `Cc1cc(N(C)C)nc(N[C@H]2CC[C@@H](NC(=O)c3cccc(C#N)c3)CC2)n1` [compound 2957, 3-cyano-N-(cis-4-{[4-(dimethylamino)-6-methylpyrimidin-2-yl]amino}cyclohexyl)benzamide] was tested. Which class did it give?
**A.** 1 (Class 1: The value of percent of control at 10^−7 M was less than 40% or the value of IC50 was less than 50 nM.)

**Q.** With `Cc1cc(N(C)C)nc(N[C@H]2CC[C@@H](NC(=O)c3ccc(C#N)cc3)CC2)n1` [compound 2958, 4-cyano-N-(cis-4-{[4-(dimethylamino)-6-methylpyrimidin-2-yl]amino}cyclohexyl)benzamide] as the compound, how does the class read?
**A.** 1 (Class 1: The value of percent of control at 10^−7 M was less than 40% or the value of IC50 was less than 50 nM.)

**Q.** With `COc1cc(OC)cc(C(=O)N[C@H]2CC[C@@H](Nc3nc(C)cc(N(C)C)n3)CC2)c1` [compound 2959, N-(cis-4-{[4-(dimethylamino)-6-methylpyrimidin-2-yl]amino}cyclohexyl)-3,5-dimethoxybenzamide] as the compound, how does the class read?
**A.** 1 (Class 1: The value of percent of control at 10^−7 M was less than 40% or the value of IC50 was less than 50 nM.)

**Q.** For `Cc1cc(N(C)C)nc(N[C@H]2CC[C@@H](NC(=O)c3ccc(C(F)(F)F)c(F)c3)CC2)n1` [compound 2960, N-(cis-4-{[4-(dimethylamino)-6-methylpyrimidin-2-yl]amino}cyclohexyl)-3-fluoro-4-(trifluoromethyl)benzamide], which class is on record?
**A.** 2 (Class 2: The value of percent of control at 10^−7 M was from 40% to 60% or the value of IC′50 was from 50 nM to 200 nM.)
